# From PMC5218480 (PLoS ONE, 2017)
# Tested on: MV-4-11 cells
# Assay: Gene expression microarray analysis (Affymetrix PrimeView) and GSEA
# Format: cell-based, human
# Conditions: ProbeSet 11758779_at; LIST B
smiles,measurement,value
Nc1ccc(-c2cccs2)cc1NC(=O)c1ccc2c(c1)cc(C1CC1)n2CCN1CCOCC1 [ACY-1035],"RFU, TMEM50B",85.32 RFU
